Data reported in patent publication US20240254139A1, “FUSED ISOXAZOLYL COMPOUNDS AS KAT6A INHIBITORS” (Aurigene Oncology Limited, priority 2021, published 2024).

Molecular target: T1, human-KAT6A (MYST domain 507-778 aa) (Homo sapiens, UniProt Q92794)
T1 construct: human-KAT6A (MYST domain 507-778 aa)
Assay: KAT6A biochemical assay (TR-FRET)
Details: for inhibition at 1 µM: compound at 1 μM, percent inhibition of internal assay controls; for IC50: dose-response, sigmoidal curve fit, groups A, B, C; for inhibition at 10 µM: compound at 10 μM (stated in the cell), read-out: Percent Inhibition (at 10 μM)
Text: A TR-FRET based method was used for assaying compounds of the invention for KAT6A enzyme inhibitory activity. TR-FRET is homogeneous proximity assay where Europium-labelled anti-acetyl lysine antibody binds to the acetylated substrate labelled with biotin which in turn binds to streptavidin labelled APC fluorescence acceptor. Europium can transfer energy to APC in the complex and the interaction of two dye-labelled binding partners is detected by the energy transfer between a donor and an acceptor dye, and the subsequent light emission by the acceptor dye. KAT6A transfer an acetyl group from acetyl CoA to lysine amino acids of histones/target proteins. Typically, 5 μL of human-KAT6A (MYST domain 507-778 aa) in assay buffer (100 mM Tris HCl (pH 7.8), 15 mM NaCl, 1 mM EDTA, 0.01% Tween-20, 0.02% BSA, 1 mM DTT) is added to a 384-well plate containing 5 μL of selected test compound in final 1% DMSO, serially diluted in 1:3 in an 8-10-point titration. The selected compound of the present invention and enzyme are incubated for 30 min at room temperature. Next, 5 μL of substrate mix containing histone H4 peptide and acetyl-CoA in assay buffer is added to the plate. The final concentrations of H4 peptide and acetyl-CoA are 200 nM and 600 nM respectively. Following 30 min reaction at room temperature, 5 μL of detection mix containing Europium labelled anti-acetyl antibody and streptavidin-APC is added to the reaction wells. Plate is further incubated for 45 min at room temperature and is read in TR-FRET mode (Ex: 340 nm; Em: 615 nm and 665 nm) on a plate reader.
Selected compounds of the present invention were screened in the above-mentioned assay procedure and IC50 values were determined by fitting the dose-response data to sigmoidal curve fitting equation using Graph pad prism software V8. […]

T1 sequence (Q92794 507-778): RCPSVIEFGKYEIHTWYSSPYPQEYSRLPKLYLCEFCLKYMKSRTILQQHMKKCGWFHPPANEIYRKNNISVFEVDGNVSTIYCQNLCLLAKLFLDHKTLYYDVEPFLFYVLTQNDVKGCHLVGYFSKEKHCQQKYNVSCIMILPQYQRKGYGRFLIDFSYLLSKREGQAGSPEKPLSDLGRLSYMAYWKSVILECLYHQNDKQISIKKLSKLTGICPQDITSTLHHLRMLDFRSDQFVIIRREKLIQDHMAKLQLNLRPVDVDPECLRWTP

## COc1cccc(OC)c1S(=O)(=O)Nc1noc2nc(N3CCC(F)(F)C3)cc(OC)c12 [Compound 18, N-(6-(3,3-difluoropyrrolidin-1-yl)-4-methoxyisoxazolo[5,4-b]pyridin-3-yl)-2,6-dimethoxybenzenesulfonamide]
  inhibition at 1 µM: 100%
  IC50: < 100 nM

## COc1cccc(OC)c1S(=O)(=O)Nc1noc2ncncc12 [Compound 20, N-(isoxazolo[5,4-d]pyrimidin-3-yl)-2,6-dimethoxybenzenesulfonamide]
  inhibition at 1 µM: 14%

## COc1ccccc1S(=O)(=O)Nc1noc2nc(-c3ccccc3)cc(OC)c12 [Compound 8, 2-methoxy-N-(4-methoxy-6-phenylisoxazolo[5,4-b]pyridin-3-yl)benzenesulfonamide]
  inhibition at 1 µM: 82%
  IC50: 110 to 200 nM

## COc1cccc(OC)c1S(=O)(=O)Nc1noc2nc(-c3ccccc3)nc(OC)c12 [Compound 2, 2,6-dimethoxy-N-(4-methoxy-6-phenylisoxazolo[5,4-d]pyrimidin-3-yl)benzenesulfonamide]
  inhibition at 1 µM: 100%
  IC50: < 100 nM

## COc1cccc(OC)c1S(=O)(=O)Nc1noc2nc(N3CCOCC3)cc(OC)c12 [Compound 14, 2,6-dimethoxy-N-(4-methoxy-6-morpholinoisoxazolo[5,4-b]pyridin-3-yl)benzenesulfonamide]
  inhibition at 1 µM: 49%

## COc1cc(-c2ccccc2)nc2onc(NS(=O)(=O)c3c(F)cccc3F)c12 [Compound 25, 2,6-difluoro-N-(4-methoxy-6-phenylisoxazolo[5,4-b]pyridin-3-yl)benzenesulfonamide]
  inhibition at 1 µM: 30%

## COc1cc(-c2ccccc2)nc2onc(NS(=O)(=O)c3ccccc3OC(F)(F)F)c12 [Compound 7, N-(4-methoxy-6-phenylisoxazolo[5,4-b]pyridin-3-yl)-2-(trifluoromethoxy)benzenesulfonamide]
  inhibition at 1 µM: 25%

## COc1cccc(OC)c1S(=O)(=O)Nc1noc2nc(N3CCC(OC)C3)cc(OC)c12 (stereo not drawn) [Compound 19, 2,6-dimethoxy-N-(4-methoxy-6-(3-methoxypyrrolidin-1-yl)isoxazolo[5,4-b]pyridin-3-yl)benzenesulfonamide]
  inhibition at 1 µM: 92%
  IC50: 110 to 200 nM

## COc1cc(C(C)(C)C)ccc1S(=O)(=O)Nc1noc2nc(-c3ccccc3)cc(OC)c12 [Compound 34, 4-(tert-butyl)-2-methoxy-N-(4-methoxy-6-phenylisoxazolo[5,4-b]pyridin-3-yl)benzenesulfonamide]
  inhibition at 10 µM: 100%
  IC50: > 200 nM

## CCOc1ccccc1S(=O)(=O)Nc1noc2nc(-c3ccccc3)cc(OC)c12 [Compound 9, 2-ethoxy-N-(4-methoxy-6-phenylisoxazolo[5,4-b]pyridin-3-yl)benzenesulfonamide]
  inhibition at 1 µM: 62%
  IC50: > 200 nM

## CCN(Cc1ccc(OC)cc1)c1cc(OC)c2c(NS(=O)(=O)c3c(OC)cccc3OC)noc2n1 [Compound 30, N-(6-(ethyl(4-methoxybenzyl)amino)-4-methoxyisoxazolo[5,4-b]pyridin-3-yl)-2,6-dimethoxybenzenesulfonamide]
  inhibition at 1 µM: 56%

## COc1cccc(OC)c1S(=O)(=O)Nc1noc2ncccc12 [Compound 24, N-(isoxazolo[5,4-b]pyridin-3-yl)-2,6-dimethoxybenzenesulfonamide]
  inhibition at 1 µM: 13%

## COc1cccc(OC)c1S(=O)(=O)Nc1noc2nc(-c3ccccc3)cc(OC)c12 [Compound 1, 2,6-dimethoxy-N-(4-methoxy-6-phenylisoxazolo[5,4-b]pyridin-3-yl)benzenesulfonamide]
  inhibition at 1 µM: 100%
  IC50: < 100 nM

## COc1cccc(OC)c1S(=O)(=O)Nc1noc2nc(N3CC(F)(F)C3)cc(OC)c12 [Compound 28, N-(6-(3,3-difluoroazetidin-1-yl)-4-methoxyisoxazolo[5,4-b]pyridin-3-yl)-2,6-dimethoxybenzenesulfonamide]
  inhibition at 1 µM: 80%
  IC50: > 200 nM

## COc1cccc(OC)c1S(=O)(=O)Nc1noc2nc(N3CCC3)cc(OC)c12 [Compound 16, N-(6-(azetidin-1-yl)-4-methoxyisoxazolo[5,4-b]pyridin-3-yl)-2,6-dimethoxybenzenesulfonamide]
  inhibition at 1 µM: 100%
  IC50: 110 to 200 nM

## COc1cccc(OC)c1S(=O)(=O)Nc1noc2nc(N3CC(OC)C3)cc(OC)c12 [Compound 17, 2,6-dimethoxy-N-(4-methoxy-6-(3-methoxyazetidin-1-yl)isoxazolo[5,4-b]pyridin-3-yl)benzenesulfonamide]
  inhibition at 1 µM: 100%
  IC50: 110 to 200 nM

## COc1cccc(OC)c1S(=O)(=O)Nc1noc2nc(N(C)C)cc(OC)c12 [Compound 15, N-(6-(dimethylamino)-4-methoxyisoxazolo[5,4-b]pyridin-3-yl)-2,6-dimethoxybenzenesulfonamide]
  inhibition at 1 µM: 59%
  IC50: > 200 nM

## CNc1cc(OC)c2c(NS(=O)(=O)c3c(OC)cccc3OC)noc2n1 [Compound 37, 2,6-dimethoxy-N-(4-methoxy-6-(methylamino)isoxazolo[5,4-b]pyridin-3-yl)benzenesulfonamide]
  inhibition at 1 µM: 34%

## COc1cccc(OC)c1S(=O)(=O)Nc1noc2cc(-c3ccccc3)ncc12 [Compound 11, 2,6-dimethoxy-N-(6-phenylisoxazolo[4,5-c]pyridin-3-yl)benzenesulfonamide]
  inhibition at 1 µM: 12%

## COc1ccc(CN(C)c2cc(OC)c3c(NS(=O)(=O)c4c(OC)cccc4OC)noc3n2)cc1 [Compound 29, 2,6-dimethoxy-N-(4-methoxy-6-((4-methoxybenzyl)(methyl)amino)isoxazolo[5,4-b]pyridin-3-yl)benzenesulfonamide]
  inhibition at 1 µM: 38%

## COc1cccc(OC)c1S(=O)(=O)Nc1noc2nc(-c3ccsc3)cc(OC)c12 [Compound 31, 2,6-dimethoxy-N-(4-methoxy-6-(thiophen-3-yl)isoxazolo[5,4-b]pyridin-3-yl)benzenesulfonamide]
  IC50: < 100 nM

## COc1cccc(OC)c1S(=O)(=O)Nc1noc2nc(N3CCCC3)cc(OC)c12 [Compound 13, 2,6-dimethoxy-N-(4-methoxy-6-(pyrrolidin-1-yl)isoxazolo[5,4-b]pyridin-3-yl)benzenesulfonamide]
  inhibition at 1 µM: 97%
  IC50: 110 to 200 nM

## COc1cccc(OC)c1S(=O)(=O)Nc1noc2nc(Cn3cccn3)cc(OC)c12 [Compound 35, N-(6-((1H-pyrazol-1-yl)methyl)-4-methoxyisoxazolo[5,4-b]pyridin-3-yl)-2,6-dimethoxybenzenesulfonamide]
  IC50: > 200 nM

## COc1cccc(OC)c1S(=O)(=O)Nc1noc2cnccc12 [Compound 21, N-(isoxazolo[5,4-c]pyridin-3-yl)-2,6-dimethoxybenzenesulfonamide]
  inhibition at 1 µM: 11%

## COc1cccc(OC)c1S(=O)(=O)Nc1noc2nc(N(C)C3CCCCC3)cc(OC)c12 [Compound 27, N-(6-(cyclohexyl(methyl)amino)-4-methoxyisoxazolo[5,4-b]pyridin-3-yl)-2,6-dimethoxybenzenesulfonamide]
  inhibition at 1 µM: 17%

## COc1cccc(OC)c1S(=O)(=O)Nc1noc2cc(-c3ccccc3)n(C)c(=O)c12 [Compound 4, 2,6-dimethoxy-N-(5-methyl-4-oxo-6-phenyl-4,5-dihydroisoxazolo[4,5-c]pyridin-3-yl)benzenesulfonamide]
  inhibition at 1 µM: 23%

## CCc1ccc(OC)c(S(=O)(=O)Nc2noc3nc(-c4ccccc4)cc(OC)c23)c1 [Compound 33, 5-ethyl-2-methoxy-N-(4-methoxy-6-phenylisoxazolo[5,4-b]pyridin-3-yl)benzenesulfonamide]
  IC50: < 100 nM

## COc1cccc(OC)c1S(=O)(=O)Nc1noc2cc(-c3ccccc3)cnc12 [Compound 6, 2,6-dimethoxy-N-(6-phenylisoxazolo[4,5-b]pyridin-3-yl)benzenesulfonamide]
  inhibition at 10 µM: 58%

## COc1ccccc1-c1cc(OC)c2c(NS(=O)(=O)c3c(OC)cccc3OC)noc2n1 [Compound 10, 2,6-dimethoxy-N-(4-methoxy-6-(2-methoxyphenyl)isoxazolo[5,4-b]pyridin-3-yl)benzenesulfonamide]
  inhibition at 1 µM: 100%
  IC50: < 100 nM

## COc1cccc(OC)c1S(=O)(=O)N(C)c1noc2nc(-c3ccccc3)cc(OC)c12 [Compound 36, 2,6-dimethoxy-N-(4-methoxy-6-phenylisoxazolo[5,4-b]pyridin-3-yl)-N-methylbenzenesulfonamide]
  inhibition at 1 µM: 0%

## CCNc1cc(OC)c2c(NS(=O)(=O)c3c(OC)cccc3OC)noc2n1 [Compound 38, N-(6-(ethylamino)-4-methoxyisoxazolo[5,4-b]pyridin-3-yl)-2,6-dimethoxybenzenesulfonamide]
  inhibition at 1 µM: 95%

## COc1cc(-c2ccccc2)nc2onc(NS(=O)(=O)c3ccccc3F)c12 [Compound 26, 2-fluoro-N-(4-methoxy-6-phenylisoxazolo[5,4-b]pyridin-3-yl)benzenesulfonamide]
  inhibition at 1 µM: 23%
